Test results taken from patent US20040018528A1, “Novel biomarkers of tyrosine kinase inhibitor exposure and activity in mammals” (Sugen, Inc., priority 2002, published 2004).
“And” between values parts separate entries of the source, which are not always exact repeats. Identical values can stand only once.

How the values were obtained:
Assay type in all cases: in vivo, human
PAI-1 [1] = experiment: ELISA of PAI-1 in plasma of patients given Compound A; details: cancer patients; 24 hours after first dose vs before; dosed twice over 24 hours
Experimental: (§1) (Minneapolis, Minn.). Human plasminogen activator inhibitor-1 (PAI-1) and human tissue factor (TF) ELISA kits were obtained from American Diagnostica, Inc. (Greenwich, Conn.). All ELISAs were performed on plasma samples according to the manufacturers' instructions.

VEGF = experiment: ELISA of VEGF in plasma of patients given Compound A; details: cancer patients; 24 hours after first dose vs before; dosed twice over 24 hours
Experimental: as §1

TIMP-1 = experiment: ELISA of TIMP-1 in plasma of patients given Compound A; details: cancer patients; 24 hours after first dose vs before; dosed twice over 24 hours
Experimental: as §1

[2] = system: RNA transcripts in patient whole blood; experiment: Affymetrix DNA array and TaqMan qRT-PCR of whole blood RNA of patients given Compound A; details: Affymetrix GeneChip
Experimental: TRI Reagent® BD—RNA, DNA, protein isolation reagent was used according to the manufacturer's protocol, Molecular Research Center, Inc. (Cincinnati, Ohio) <www.mrcgene.com>.
Images were scanned with a Hewlett-Packard GeneArray scanner.
To determine the fold change, the AD of the post-treatment sample was divided by the AD of the pre-dose samples.
All probes contained a reporter dye (FAM) and a dye quencher (MGB). QRT-PCR was performed using 20 ng of total RNA with TaqMan® One-Step RT-PCR Master Mix Reagents Kit (Applied Biosystems) following the manufacturer's protocol. […] VEGF (Genbank accession number AF022375) transcripts were amplified using forward primer […] (SEQ ID NO: 165), reverse primer […] (SEQ ID NO: 166), and probe […] (SEQ ID NO: 167) to generate an 82-bp amplicon product. Vinculin (Genbank accession number M33308) transcripts were amplified using forward primer […] (SEQ ID NO: 168), reverse primer […] (SEQ ID NO: 169), and probe […] (SEQ ID NO: 170) to generate a 124-bp amplicon product. PECAM-1 (Genbank accession number L34657) transcripts were amplified using forward primer […] (SEQ ID NO: 171), reverse primer […] (SEQ ID NO: 172), and probe […] (SEQ ID NO: 173) to generate a 56-bp amplicon product. MAPK Kinase 3 (Genbank accession number L36719) transcripts were amplified using forward primer […] (SEQ ID NO: 174), reverse primer […] (SEQ ID NO: 175), and probe […] (SEQ ID NO: 176) to generate a 77-bp amplicon product. Hemoglobin, epsilon 1 (Genbank accession number AI349593) transcripts were amplified using forward primer […] (SEQ ID NO: 177), reverse primer […] (SEQ ID NO: 178), and probe […] (SEQ ID NO: 179) to generate a 66-bp amplicon product. GAPDH and 18S were ordered as pre-developed assay reagents (PDARs) from Applied Biosystems and used as endogenous controls.
Where ΔΔCt=(Cttarget−Ctcontrol)post-dose−(Cttarget−Ctcontrol)pre-dose.

PBMC = experiment: Affymetrix microarray expression profiling of PBMC, Compound B Trial A; details: PBMC day 56 vs day 1
Experimental: Patient samples were derived from 2 randomized, open-label, multicenter Phase III clinical trials comparing standard of care chemotherapy alone or combined with Compound B in patients with metastatic colorectal cancer. In both trials Compound B was delivered twice weekly at a dose of 145 mg/m^2 via I.V. infusion. In the first trial (designated Trial A), the standard of care chemotherapy consisted of weekly administration of 5-FU and leucovorin (Rosewell Park regimen); in the second trial (designated Trial B), the standard of care chemotherapy consisted of weekly or bi-weekly administration of 5-FU, leucovorin and Irinotecan (CPT-11). A total of 23 patient sample pairs were included in Affymetrix microarray expression profiling analysis, 2 females and 9 males in the Compound B treatment arm, and 2 females and 10 males in the control arm. The median patient age was 66 and 65 years for the Compound B treatment arm and control arm, respectively. For RT-verification experiments, samples from 12 females and 24 males from the Compound B treatment arm, and 14 females and 17 males from the control arm were used. The median age for these patients was 62 and 60 years, respectively. Clinical response criteria were defined according to RECIST guidelines.
All blood samples were collected into Vacutainer tubes containing sodium heparin. Ten 10 ml of blood was withdrawn from patients prior to receiving any treatment on day 1 and also prior to dosing at end of cycle 1 (day 56 in Trial A; day 42 in Trial B). For peripheral blood mononuclear cell (PBMC) preparations, blood samples were shipped overnight at ambient temperature to a central processing facility (Quest Diagnostics, Inc., Collegeville, Pa., USA) for PBMC isolation via Ficoll gradient method. Purified PBMCs were shipped in RNA lysis buffer (Clontech, Palo Alto, Calif., USA) to SUGEN where isolation of total RNA was performed. For Trial B, whole peripheral blood samples were directly frozen at the clinical sites and shipped on dry ice to SUGEN for RNA isolation.
Total RNA was purified from PBMC samples using Clontech Nucleospin RNA II kit reagents (Clontech, Palo Alto, Calif.) and from whole blood samples using MRC TRI Reagent BD (Molecular Research Center, Cincinnati, Ohio, USA), an adaptation of the Chomczynski single step method, according to the manufacturer's instructions. All sample preparations included a treatment with RNAse-free DNAse. RNA yields were measured by UV absorbance and RNA quality was assessed by agarose gel electrophoresis with ethidium bromide staining for visualization of ribosomal RNA band integrity.
In these experiments, equal amounts of starting material were used for pre- and post-treatment samples from each donor (typically 2 μg). Briefly, the protocol was as follows: double-stranded cDNA was synthesized from total RNA (2 μg), with Invitrogen Life Technologies SuperScript Choice system reagents (Invitrogen, Carlsbad, Calif.). The T7-(dT)24 oligomer was used for priming first-strand cDNA synthesis. Double-stranded cDNA product was purified via phenol-chloroform extraction, then used as template in first round of in vitro transcription (IVT) of cRNA. […] The cRNA product was then purified with Qiagen spin column clean-up protocol and used as template in second round of cDNA synthesis. This second round of synthesis was similar to the first round except that random hexamers were used in priming of first-strand synthesis, with T7-(dT)24 oligomer priming the second-strand. Purification of the cDNA was as in the first round. The second round of IVT of cRNA was as in the first round but with biotinylated ribonucleotides rather than non-biotinylated ribonucleotides. Purified cRNA was quantitated, chemically fragmented according to Affymetrix protocol, and then hybridized overnight on Human Genome U95A Arrays (which contain probe sets for the detection of approximately 12,600 transcripts). […]

PBMC and whole blood RNA = experiment: SYBR Green quantitative RT-PCR of PBMC / whole blood RNA, Compound B Trials A and B; details: end of one treatment cycle relative to baseline, two Phase III trials
Experimental: Primers were designed with Primer Express 1.5 software (Applied Biosystems). In all cases, primers were designed to bind within the sequence that was used in Affymetrix probe set designs (target sequence information available on Affymterix NetAffx website). Total RNA samples (1 μg) were reverse transcribed to yield first-strand cDNA using the Applied Biosystems Reverse Transcription Reagents protocol (Applied Biosystems, Foster City, Calif.). The reverse transcription reactions were then diluted 1:5 in distilled H2O. […] For individual reactions, 10 μl of each sample were combined with 15 μl of SYBR Green PCR Master Mix (Applied Biosystems) containing the appropriate primer pair at 350 nM. Data was extracted and amplification plots generated with ABI SDS software. […]
The relative expression data for a select subset of potential biomarkers were tested for differences between the Compound B (treatment) and the standard of care (control) arms. […] Results from three different cross-validations were evaluated to select the best set of predictable biomarkers: (1) jackknife method (dropping one case at a time); (2) randomly splitting the pooled data into two halves, prediction (for building model) and validation (for testing model); and (3) using the first trial as prediction and the later trial as validation sets, respectively. […]

PAI-1 [3] = experiment: PAI-1 plasma levels in Compound B trial patients; details: after 56 days of treatment
VEGF/PLGF heterodimers = experiment: Hybrid ELISA for VEGF/PLGF heterodimers in patient plasma; details: Trial C
Description: Heterodimers of VEGF and PLGF have been reported in the scientific literature. To measure heterodimers, a hybrid ELISA assay was used, combining reagents from both the R&D Systems VEGF and PLGF ELISA kits (where VEGF antibodies are used in capture step and PLGF antibodies are used in detection step).

MIG [4] = experiment: MIG plasma ELISA, Compound 1 Phase I trials; details: individual patients
Experimental: (§2) In Trials A and B, patients received Compound 1.
(§3) Data analysis was performed for each marker.

IP-10 = IP-10 plasma ELISA, Compound 1 Phase I trials; details: individual patients; >500 = above highest standard
Experimental: as §2, §3

I-TAC = I-TAC plasma ELISA, Compound 1 Phase I trials; details: individual patients
Experimental: as §2, §3

MIG [5] = experiment: MIG plasma ELISA, Compound 1 Phase I trials; details: Trial C patients, FIG. 17
[6] = advanced solid malignancies, 24 hours after first dose vs before
[7] = patients with Increase call, Trial A, with 5-FU/leucovorin

Cc1[nH]c(/C=C2\C(=O)Nc3ccccc32)c(C)c1CCC(=O)O [Compound A, 3-[2,4-dimethyl-5-(2-oxo-1,2-dihydro-indol-3-ylidenemethyl)-1H-pyrrol-3-yl]-propionic acid]
level of PAI-1 in plasma (PAI-1 [1]): increased
level of VEGF in plasma (VEGF): increased
level of TIMP-1 in plasma (TIMP-1): increased
level of VEGF RNA in whole blood [2, 6]: increase
level of vinculin RNA in whole blood [2, 6]: increase
levels of 26 RNA transcripts in patient blood ([2]; day 28 vs day 0, dosed about 2 times per day): increased and/or decreased

Cc1cc(C)c(/C=C2\C(=O)Nc3ccccc32)[nH]1 [Compound B, 3-(3,5-dimethyl-1H-pyrrol-2-ylmethylene)-1,3-dihdyro-indol-2-one]
average fold change of lactoferrin transcript (PBMC; Compound B (SU5416) arm, highest of the 13 transcripts): 33
average fold change of hypothetical protein FLJ13052 transcript (PBMC; Compound B (SU5416) arm, lowest of the 13 transcripts): 2.6
Increased in SU5416 arm: Antileukoprotease transcript (PBMC; [7]): 9 of 11
Increased in SU5416 arm: BPI transcript (PBMC; [7]): 9 of 11
Increased in SU5416 arm: CD24 antigen transcript (PBMC; [7]): 9 of 11
Increased in SU5416 arm: CEA CAM 8 transcript (PBMC; [7]): 9 of 11
Increased in SU5416 arm: Defensin α 3 transcript (PBMC; [7]): 10 of 11
Increased in SU5416 arm: Defensin α 4 transcript (PBMC; [7]): 10 of 11
Increased in SU5416 arm: Hypothetic. Protein FLJ13052 transcript (PBMC; [7]): 7 of 11
Increased in SU5416 arm: Lactoferrin transcript (PBMC; [7]): 11 of 11
Increased in SU5416 arm: Lipocalin 2 transcript (PBMC; [7]): 10 of 11
Increased in SU5416 arm: Liver arginase transcript (PBMC; [7]): 9 of 11
Increased in SU5416 arm: MMP-9 transcript (PBMC; [7]): 8 of 11
Increased in SU5416 arm: S100 P transcript (PBMC; [7]): 9 of 11
Increased in SU5416 arm: Thrombospondin 1 transcript (PBMC; [7]): 9 of 11
number of the 13 genes showing induction in each case (PBMC; all cases of the Compound B arm): at least 6
expression of CD24, lactoferrin, LCN2 and MMP-9 transcripts (PBMC and whole blood RNA): significantly induced
median PAI-1 plasma level, day 56 (PAI-1 [3]; patients with MR (minor response) at end of cycle 1): 23.93 ng/mL
median PAI-1 plasma level, day 56 (PAI-1 [3]; patients with PD (progressive disease) at end of cycle 1): 34.8 ng/mL

CCN(CC)CCNC(=O)c1c(C)[nH]c(C=C2C(=O)Nc3ccc(F)cc32)c1C.O=C(O)C[C@H](O)C(=O)O [malate salt of Compound 1, L-malate salt of 5-(5-fluoro-2-oxo-1,2-dihydroindol-3-ylidenemethyl)-2,4-dimethyl-1H-pyrrole-3-carboxylic acid(2-diethylaminoethyl)amide]
patients tested with increase in plasma levels of VEGF/PLGF heterodimer (VEGF/PLGF heterodimers): 3 of 3
MIG plasma level, day 15 (MIG [4]; cycle 1): 339.16
MIG plasma level, end C1 dosing (MIG [4]; in pg/mL (unit assumed)): 995.47 and 81.439 and 145.64 and 698.23 and 1066.2 and 344.93 and 907.09 and 314.2
IP-10 plasma level, end C1 dosing (IP-10): >500 (4×) and 240.31 and 384.06
I-TAC plasma level, day 15 (I-TAC; cycle 1): 2020.2
I-TAC plasma level, end C1 dosing (I-TAC; in pg/mL (unit assumed)): 771.04 and 701.46 and 315.69
chemokine MIG plasma level during treatment (MIG [5]): induced
